Results: patent publication US20230203060A1 (GENFLEET THERAPEUTICS (SHANGHAI) INC., priority 2020, published 2023)

How the values were obtained:
[1] = system: KRAS G12C mutant MIA PaCa-2 cells; assay: Cell proliferation inhibition experiment, 3D spheroid, CellTiter-Glo, MIA PaCa-2; type: cell-based, human; conditions: Homo sapiens, MIA PaCa-2, 120 h, 3D cell model in 384-well spheroid plate, 5 days, CellTiter-Glo; read-out: MIA-PaCa2 IC50
How it was run: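 Luminescent ATP read-out (CellTiter-Glo) after 5-day compound treatment of spheroids formed overnight from 200 MIA PaCa-2 cells/well; compounds in 3.16-fold series, 0.1% DMSO final. IC50 derived by four-parameter fit of percent inhibition, normalized to DMSO control and medium blank.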

[2] = system: KRAS G12C mutant NCI-H358 cells; assay: Cell proliferation inhibition experiment, 3D spheroid, CellTiter-Glo, NCI-H358; type: cell-based, human; conditions: Homo sapiens, NCI-H358, 120 h, NCI-H358 (KRAS G12C mutant) 3D spheroid, 5 days with compound, CellTiter-Glo; read-out: H358 IC50
How it was run: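 First, H358 (800/well) or A549 (400/well) cells are plated in 2% FBS medium and left overnight to form spheroids. Next, compound is added as a 3.16-fold gradient at 0.1% DMSO for 5 days. Finally, CellTiter-Glo signal is read and IC50 derived by four-parameter fitting.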

| Structure (SMILES) | IC50 [1] [nM] | IC50 [2] [nM] |
| --- | --- | --- |
| C=CC(=O)N1CCN2C(=O)c3c(NC(C)(C)C)nc(-c4ccccc4F)c(Cl)c3OC[C@H]2C1 [Z457, (R)-8-acryloyl-1-(tert-butylamino)-4-chloro-3-(2-fluorophenyl)-6,6a,7,8,9,10-hexahydro-12H-pyrazino[2,1-c]pyrido[3,4-f][1,4]oxazepin-12-one] | 522 | 62.7 |
| C=CC(=O)N1CCN2C(=O)c3c(N4C[C@H](N5CCN(C)CC5)C[C@@H]4C)nc(-c4ccccc4F)c(Cl)c3OC[C@H]2C1 [Z470-1] | 43 | 23 |
